Legend:
[1] = test system: H. glycines second-stage nematodes (J2), races 2 (HG type 1.2.5.7) and 5 (HG type 2.5.7); experiment: whole plant or invertebrate; conditions: for nematocidal activity against races 2 and 5: 24 hours incubation, 0.5 and 1.0 mg/ml, overall statement; for mortality at 500 µg/mL / mortality at 1000 µg/mL: Heterodera glycines, 24 h, read-out: J2 mortality
Experimental: Determination of the nematocidal activity of phenolic compounds was conducted as previously described. Briefly, approximately 400 freshly hatched J2s in 900 μl of water were added to each well of a 24-well Microtest™ tissue culture plate, and 100 μl of the compound test solution was added at concentrations of 5 mg/ml and 10 mg/ml. Therefore, the final concentration of each compound in each suspension is 0.5 mg/ml and 1.0 mg/ml. Control samples received 100 μl of water. Three replicates per concentration were used. The plate was covered with the original solid lid and wrapped with Parafilm®, and samples were kept at 27° C. in an incubator. After 24 hours of incubation, dead and alive J2 nematodes were counted using a stereo microscope Leica M165 FC (×40) to evaluate mortality rates. J2 mortality can be estimated according to the mean percentage of dead J2 in the total number of J2 (alive and dead). Nematodes are considered dead when no movement was observed during 3 seconds of observation. The compounds 3,4-dihydroxybenzoic acid and 4-hydroxybenzaldehyde are commercially available at Sigma-Aldrich, USA.

[2] = test system: root-knot nematode (Meloidogyne incognita); conditions: known from prior reports; cited from earlier work
nematode = conditions: general statement; cited from earlier work

Row | SMILES | nematocidal activity against races 2 and 5 [1] | mortality at 500 µg/mL [1] [%] | mortality at 1000 µg/mL [1] [%] | nematocidal activity against root-knot nematode [2] | direct nematocidal activity (nematode)
1 | O=Cc1ccc(O)cc1 [4-hydroxybenzaldehyde] | demonstrated nematocidal activity | 68 | 96 | – | –
2 | O=C(O)c1ccc(O)c(O)c1 [3,4-dihydroxybenzoic acid] | demonstrated nematocidal activity | 19 | 30 | showing nematocidal activity | –
3 | O=C(O)c1ccccc1O [SA, salicylic acid] | – | – | – | – | no direct nematocidal activity

Source: US20200345006A1, “METHODS OF REDUCING NEMATODE INFECTION IN PLANTS” (The University of North Carolina at Charlotte, priority 2019, published 2020)
